# Measured values taken from US9221756B2, “Pyrrole derivatives” (priority 2011, dated 2015).
# Like-named read-outs stand apart in the source and are kept apart here.
# Key:
# pneumolysin = pneumolysin (Streptococcus pneumoniae serotype 2, UniProt Q04IN8); assay: Inhibition of the haemolytic activity of pneumolysin (sheep erythrocytes); type: cell-based; settings: class symbols of Table 1
# [1] = Conversion of prodrug derivatives to active inhibitors in mouse plasma; type: in vitro ADME; settings: 37° C., 10 μM start, prodrug remaining; for [ ] (μM) t0 min. Prodrug: 0 min; for [ ] (μM) t15 min. Prodrug: 15 min; for [ ] (μM) t30 min. Prodrug: 30 min; for [ ] (μM) t60 min. Prodrug: 60 min; for [ ] (μM) t120 min. Prodrug: 120 min
# Method: The samples were then analysed by LC-MS/MS to obtain the amount of active compound appearing and prodrug derivative remaining over time. The mouse plasma assay system is considered to be a good model for human behaviour. Nevertheless data obtained in a human plasma assay system was obtained in some cases.
# Prodrug derivatives were assessed in the mouse and human plasma stability assay at a concentration of 10 μM. Test compounds were diluted in DMSO to a final stock concentration of 10 mM. For the purpose of the assay, the stocks prepared were further diluted in DMSO to a concentration of 400 μM and […] were added to 195 μl of mouse or human plasma (pH 7.4) and then incubated at 37° C. The final concentration of DMSO in the plate was 2.5% (v/v). Reactions were terminated at 0, 15, 30, 60 and 120 min after incubation by adding 400 μl of acetonitrile containing 0.55 μM metoprolol and 1% (v/v) formic acid. The plate was then centrifuged at 3000 rpm, for 45 min, at 4° C. 80 μl of supernatant were transferred into a conical bottom 96 well glass coated plate. 40 μl of water were added prior to analysis for prodrug derivative and active species by LC-MS/MS. This assay was performed by a contract research organisation, Cyprotex Discovery Limited, UK, at the request of the inventors at Leicester.
# (1) The active compound was quantified using a 6 point calibration curve prepared in deactivated mouse and human plasma. (2) The percentage of parent compound remaining at each time point relative to 0 min sample was calculated from LC-MS/MS peak area ratios (compound peak area/internal standard peak area). This percentage was then used to determine the concentration of the parent compound at each time point in reference to the starting concentration (10 μM) at time 0 min.
# [2] = inhibition of pneumolysin-induced haemolysis of sheep erythrocytes, read-out: IC50
# [3] = IC50, inhibition of pneumolysin-induced haemolysis of sheep erythrocytes
# pneumolysin, sequence (Q04IN8 whole entry): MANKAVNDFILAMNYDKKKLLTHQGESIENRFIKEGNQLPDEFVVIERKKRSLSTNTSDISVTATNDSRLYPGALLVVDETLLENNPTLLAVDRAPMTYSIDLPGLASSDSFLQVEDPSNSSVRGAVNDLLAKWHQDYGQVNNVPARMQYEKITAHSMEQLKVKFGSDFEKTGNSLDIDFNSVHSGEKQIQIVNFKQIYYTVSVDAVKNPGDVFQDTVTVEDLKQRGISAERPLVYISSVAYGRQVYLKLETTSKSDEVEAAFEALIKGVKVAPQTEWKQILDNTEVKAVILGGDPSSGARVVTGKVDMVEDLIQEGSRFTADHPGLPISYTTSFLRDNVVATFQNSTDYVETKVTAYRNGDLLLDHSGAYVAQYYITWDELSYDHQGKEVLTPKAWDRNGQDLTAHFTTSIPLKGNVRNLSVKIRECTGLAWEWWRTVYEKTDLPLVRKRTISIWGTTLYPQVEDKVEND
SMILES,IC50 (pneumolysin; [2]) [µM],[ ] (μM) t0 min. Prodrug [1] [µM],[ ] (μM) t15 min. Prodrug [1] [µM],[ ] (μM) t30 min. Prodrug [1] [µM],[ ] (μM) t60 min. Prodrug [1] [µM],[ ] (μM) t120 min. Prodrug [1] [µM],IC50 (pneumolysin; [3]) [µM],IC50 (pneumolysin; inhibition of pneumolysin-induced haemolysis of sheep erythrocytes) [µM]
"CCOC(=O)c1c(O)c(OC(=O)N(C)C)c(C(=O)N(C)C)n1-c1ccc(OC)cc1 [UL1-066, ethyl 5-(dimethylcarbamoyl)-4-((dimethylcarbamoyl)oxy)-3-hydroxy-1-(4-methoxyphenyl)-1H-pyrrole-2-carboxylate]",< 10,10,9.90,10.00,9.78,9.50,–,–
"CCOC(=O)c1c(OC(C)=O)c(OC(C)=O)c(C(=O)N(C)C)n1-c1ccc(OC)cc1 [UL1-044, 2-(dimethylcarbamoyl)-5-(ethoxycarbonyl)-1-(4-methoxyphenyl)-1H-pyrrole-3,4-diyl diacetate]",–,10,0,0,0,0,< 10,–
"CCOC(=O)c1c(O)c(OC(=O)N2CCC(N3CCCCC3)CC2)c(C(=O)N(C)C)n1-c1ccc(OC)cc1 [UL1-071, 2-(dimethylcarbamoyl)-5-(ethoxycarbonyl)-4-hydroxy-1-(4-methoxyphenyl)-1H-pyrrol-3-yl [1,4′-bipiperidine]-1′-carboxylate]",20 to 60,10,9.50,9.00,8.72,7.39,–,–
"CCOC(=O)c1c(OC(=O)CCOCCOC)c(OC(=O)CCOCCOC)c(C(=O)N(C)C)n1-c1ccc(OC)cc1 [UL1-105, 2-(dimethylcarbamoyl)-5-(ethoxycarbonyl)-1-(4-methoxyphenyl)-1H-pyrrole-3,4-diyl bis(3-(2-methoxyethoxy)propanoate)]",–,10,0,0,0,0,< 10,–
"CCOC(=O)c1c(O)c(OS(N)(=O)=O)c(C(=O)N(C)C)n1-c1ccc(OC)cc1 [UL1-069, ethyl 5-(dimethylcarbamoyl)-3-hydroxy-1-(4-methoxyphenyl)-4-(sulfamoyloxy)-1H-pyrrole-2-carboxylate]",–,10,9.90,9.70,9.60,9.90,< 10,–
"CCOC(=O)c1c(OC(=O)C(C)C)c(OC(=O)C(C)C)c(C(=O)N(C)C)n1-c1ccc(OC)cc1 [UL1-067, 2-(dimethylcarbamoyl)-5-(ethoxycarbonyl)-1-(4-methoxyphenyl)-1H-pyrrole-3,4-diyl bis(2-methylpropanoate)]",–,10,0,0,0,0,20 to 60,–
"CCOC(=O)c1c(OP(=O)(OCC)OCC)c(OP(=O)(OCC)OCC)c(C(=O)N(C)C)n1-c1ccc(OC)cc1 [UL1-092, ethyl 3,4-bis((diethoxyphosphoryl)oxy)-5-(dimethylcarbamoyl)-1-(4-methoxyphenyl)-1H-pyrrole-2-carboxylate]",> 60,10,5.12,4.67,4.59,3.70,–,–
"CCOC(=O)c1c(OC(=O)N(C)C)c(OC(=O)N(C)C)c(C(=O)N(C)C)n1-c1ccc(OC)cc1 [UL1-063, ethyl 5-(dimethylcarbamoyl)-3,4-bis((dimethylcarbamoyl)oxy)-1-(4-methoxyphenyl)-1H-pyrrole-2-carboxylate]",> 60,10,10,9.20,9.40,8.50,–,–
"CCOC(=O)c1c(OC(=O)C(C)(C)COCCCOP(=O)(O)O)c(OC(=O)C(C)(C)COCCCOP(=O)(O)O)c(C(=O)N(C)C)n1-c1ccc(OC)cc1 [UL1-118, 2-(dimethylcarbamoyl)-5-(ethoxycarbonyl)-1-(4-methoxyphenyl)-1H-pyrrole-3,4-diyl bis(2,2-dimethyl-3-(3-(phosphonooxy)propoxy)propanoate)]",–,10,6.04,4.00,1.68,0.23,< 10,–
"CCOC(=O)c1c(OC(=O)N2CCN(C)CC2)c(OC(=O)N2CCN(C)CC2)c(C(=O)N(C)C)n1-c1ccc(OC)cc1 [UL1-064, 2-(dimethylcarbamoyl)-5-(ethoxycarbonyl)-1-(4-methoxyphenyl)-1H-pyrrole-3,4-diyl bis(4-methylpiperazine-1-carboxylate)]",> 60,10,3.10,7.00,5.00,2.20,–,–
"CCOC(=O)c1c(OC(=O)C(C)(C)C)c(OC(=O)C(C)(C)C)c(C(=O)N(C)C)n1-c1ccc(OC)cc1 [UL1-068, 2-(dimethylcarbamoyl)-5-(ethoxycarbonyl)-1-(4-methoxyphenyl)-1H-pyrrole-3,4-diyl bis(2,2-dimethylpropanoate)]",–,10,3.02,1.00,0.136,0,–,> 60
"CCN(CC)C(=O)c1c(O)c(O)c(C(=O)N(CC)CC)n1-c1ccc(OC)cc1 [UL1-003, N^2,N^2,N^5,N^5-tetraethyl-3,4-dihydroxy-1-(4-methoxyphenyl)-1H-pyrrole-2,5-dicarboxamide]",–,–,–,–,–,–,< 10,–
"CCOC(=O)c1c(O)c(O)c(C(N)=O)n1-c1ccc(OC)cc1 [UL1-080, ethyl 5-carbamoyl-3,4-dihydroxy-1-(4-methoxyphenyl)-1H-pyrrole-2-carboxylate]",–,–,–,–,–,–,< 10,–
"COc1ccc(-n2c(C(=O)N(C)C)c(OC(=O)C(C)(C)COCCOCCOP(=O)(O)O)c(OC(=O)C(C)(C)COCCOCCOP(=O)(O)O)c2C(=O)N(C)C)cc1 [UL1-121, 2,5-bis(dimethylcarbamoyl)-1-(4-methoxyphenyl)-1H-pyrrole-3,4-diyl bis(2,2-dimethyl-3-(2-(2-(phosphonooxy)ethoxy)ethoxy)propanoate)]",–,–,–,–,–,–,10 to 20,–
"CN(C(=O)c1c(O)c(O)c(C(=O)N(C)c2ccccc2)n1-c1ccc(F)cc1)c1ccccc1 [UL1-007, 1-(4-fluorophenyl)-3,4-dihydroxy-N^2,N^5-dimethyl-N^2,N^5-diphenyl-1H-pyrrole-2,5-dicarboxamide]",–,–,–,–,–,–,20 to 60,–
"CCOC(=O)c1c(OCc2ccccc2)c(OCc2ccccc2)c(-c2nnc(C)o2)n1-c1ccc(OC)cc1 [UL1-087, ethyl 3,4-bis(benzyloxy)-1-(4-methoxyphenyl)-5-(5-methyl-1,3,4-oxadiazol-2-yl)-1H-pyrrole-2-carboxylate]",–,–,–,–,–,–,< 10,–
"NC(=O)c1c(O)c(O)c(C(N)=O)n1-c1ccc(F)cc1 [UL1-076, 1-(4-fluorophenyl)-3,4-dihydroxy-1H-pyrrole-2,5-dicarboxamide]",–,–,–,–,–,–,10 to 20,–
"CC(C)N(C(=O)c1c(O)c(O)c(C(=O)N(C(C)C)C(C)C)n1-c1ccc(F)cc1)C(C)C [UL1-017, 1-(4-fluorophenyl)-3,4-dihydroxy-N^2,N^2,N^5,N^5-tetraisopropyl-1H-pyrrole-2,5-dicarboxamide]",–,–,–,–,–,–,< 10,–
"CCOC(=O)c1c(O)c(O)c(C(=O)N(C)C)n1-c1ccc(OCCOCCOCCOC)cc1 [UL1-095, ethyl 5-(dimethylcarbamoyl)-3,4-dihydroxy-1-(4-(2-(2-(2-methoxyethoxy)ethoxy)ethoxy)phenyl)-1H-pyrrole-2-carboxylate]",–,–,–,–,–,–,< 10,–
"COc1ccc(-n2c(C(=O)N3CCN(C(C)=O)CC3)c(OCc3ccccc3)c(OCc3ccccc3)c2C(=O)N2CCN(C(C)=O)CC2)cc1 [UL1-059, 1,1′-(4,4′-(3,4-bis(benzyloxy)-1-(4-methoxyphenyl)-1H-pyrrole-2,5-dicarbonyl)bis(piperazine-4,1-diyl))diethanone]",–,–,–,–,–,–,20 to 60,–
"CCOC(=O)c1c(O)c(O)c(C(=O)N(C)C)n1-c1ccc(OCCCN2CCN(C)CC2)cc1 [UL1-103, ethyl 5-(dimethylcarbamoyl)-3,4-dihydroxy-1-(4-(3-(4-methylpiperazin-1-yl)propoxy)phenyl)-1H-pyrrole-2-carboxylate]",–,–,–,–,–,–,< 10,–
"COc1ccc(-n2c(C(=O)N(C)C)c(OCc3ccccc3)c(OCc3ccccc3)c2C(=O)N2CCOCC2)cc1 [UL1-058, 3,4-bis(benzyloxy)-1-(4-methoxyphenyl)-N,N-dimethyl-5-(morpholine-4-carbonyl)-1H-pyrrole-2-carboxamide]",–,–,–,–,–,–,20 to 60,–
